Laboratory results reported in ChEMBL document CHEMBL5126544, “Recent results from non-basic glycosidase inhibitors: How structural diversity can inform general strategies for improving inhibition potency” (Eur J Med Chem, 2022).
pIC50: −log10 of the molar value. Values after ≈ are worked out from the molar mass of the structure shown. One block for each compound: values may come before it.

Experiments:
Alpha amylase = molecular target: T1, Alpha amylase (Homo sapiens, UniProt P0DUB6); experiment: Inhibition of human salivary alpha-amylase using starch as substrate preincubated for 5 mins followed by substrate addition for 8 mins and incubated with iodide potassium for another 5 mins; set-up: species or system Saliva
T1 sequence (P0DUB6 whole entry): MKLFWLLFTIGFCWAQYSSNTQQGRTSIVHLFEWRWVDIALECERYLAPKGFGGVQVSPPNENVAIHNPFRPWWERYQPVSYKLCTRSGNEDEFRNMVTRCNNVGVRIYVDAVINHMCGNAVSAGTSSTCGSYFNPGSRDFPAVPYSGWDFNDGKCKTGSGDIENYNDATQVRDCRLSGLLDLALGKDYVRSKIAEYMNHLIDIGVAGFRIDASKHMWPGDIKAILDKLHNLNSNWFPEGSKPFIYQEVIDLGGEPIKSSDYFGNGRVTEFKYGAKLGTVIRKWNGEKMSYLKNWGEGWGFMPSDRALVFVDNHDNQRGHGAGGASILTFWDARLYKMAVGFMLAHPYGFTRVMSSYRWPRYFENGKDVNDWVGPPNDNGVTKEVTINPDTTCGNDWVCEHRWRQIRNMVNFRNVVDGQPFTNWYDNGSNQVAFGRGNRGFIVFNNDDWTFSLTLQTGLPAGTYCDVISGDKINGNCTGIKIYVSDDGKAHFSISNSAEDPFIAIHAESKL

[1] = Inhibition of yeast alpha-glucosidase using p-nitrophenyl-alpha-D-glucopyranoside as substrate preincubated for 5 mins followed by substrate addition measured after 5 mins by microplate reader analysis; set-up: species or system Saccharomyces cerevisiae
[2] = Inhibition of porcine alpha-amylase using starch as substrate preincubated for 10 mins followed by substrate addition and measured after 10 mins by microplate reader analysis; set-up: species or system Sus scrofa
[3] = Inhibition of rat intestinal maltase preincubated for 10 mins followed by substrate addition
[4] = Inhibition of rat intestinal sucrase preincubated for 10 mins followed by substrate addition
[5] = Inhibition of rat intestinal isomaltase preincubated for 10 mins followed by substrate addition
[6] = Inhibition of rat intestinal lactase preincubated for 10 mins followed by substrate addition
[7] = Inhibition of rat intestinal trehalase preincubated for 10 mins followed by substrate addition
[8] = Inhibition of rat intestinal gluco-amylase preincubated for 10 mins followed by substrate addition
[9] = Inhibition of Aspergillus niger maltase preincubated for 10 mins followed by substrate addition
[10] = Inhibition of baker's yeast sucrase preincubated for 10 mins followed by substrate addition; set-up: species or system Saccharomyces cerevisiae
[11] = Inhibition of mammalian alpha-amylase using starch as substrate; set-up: species or system Mammalia
[12] = Cytotoxicity against MDCK cells; format: toxicity, cell-based, Canis lupus familiaris; conditions: dog

IC50 (Alpha amylase): 600 µM
Compound: COC(=O)/C=C/c1ccc(OC/C=C(\C)CO)cc1

IC50 [1]: 11 mg/mL (≈ 31.4 mM)
IC50 [2]: 11 mg/mL (≈ 31.4 mM)
Compound: C=C1CC[C@@H]2[C@](C)(CO)[C@H](O)CC[C@@]2(C)[C@@H]1C/C=C1/C(=O)OC[C@H]1O [ANDROGRAPHOLIDE]

pIC50 [11]: 3.92
Compound: CC(C)=CCC/C(C)=C/C=O [CITRAL]

The next lines start with the compound.

Compound: CC1(C)CCC[C@]2(C)c3cc(O)c(O)cc3C(=O)C[C@@H]12
pIC50 [3]: 4.92
pIC50 [4]: 5.17
pIC50 [5]: 6.07
pIC50 [6]: 4.70
pIC50 [7]: 4.52
pIC50 [8]: 5.80
pIC50 [9]: 4.85
pIC50 [10]: 4.96

Compound: C/C=C/Oc1cc(C=O)ccc1O
pIC50 [12]: < 3.22
